Measurements as given in PMC9497102, “Thiosemicarbazone Derivatives Developed to Overcome COTI-2 Resistance” (Cancers, 2022).
Converted amounts (≈) assume the structure as drawn.

Key:
[1] = Iron(II) complex formation, UV-vis spectrophotometric titrations (anaerobic); assay type: physicochemical; conditions: for pFe(II): –log[free Fe(II)] calculated at cFe = 1 μM, cL = 10 μM, pH = 7.40
Experimental: (§1) The UV-vis spectra were recorded using an Agilent Cary 8454 diode array spectrophotometer in the 200 to 950 nm window, and the path length was varied between 1 and 5 cm, depending on the solubility (thus the applicable concentration). For the spectrophotometric titrations, the same instruments (Metrohm 665 Dosimat burette, Orion 710A pH-meter, Metrohm combined pH glass electrode) and experimental setup (ionic strength: 0.10 M (KCl); titrant: 0.10 M carbonate-free KOH solution in 30% (v/v) DMSO/H2O; samples: prepared in 30% (v/v) DMSO/H2O; calibration: method of Irving et al.; pH range: 1.0 to 13.5; and sample volume: 10 cm^3) were used as in our previous work. Argon overpressure was used for the Fe(II)-containing samples when the Fe(II) stock solution was added to the samples in tightly closed titration vessels, which were previously completely deoxygenated (for 20 min). Measurements were taken with ligands (10–80 μM, depending on solubility) in the presence of 1, 0.5, and 0.3 equiv. of Cu(II), Fe(II), and Fe(III) ions. Equilibrium constants, such as the proton dissociation constants (pKa) of the ligands, the overall stability constants (logβ) of the metal complexes, and the UV-vis spectra of the individual ligand or complex species were computed using the program PSEQUAD [18], as was the case in our previous works.

[2] = Thermodynamic solubility in water at pH 7.4 (UV-vis); assay type: physicochemical; conditions: water at pH 7.4 (20 mM HEPES buffer), aqueous buffer, thermodynamic from solid, water pH 7.4 (20 mM HEPES), 25 °C, read-out: S (meas.)
Experimental: The thermodynamic solubility of COTI-NMeCy, COTI-Nme2, COTI-NH2, and COTI-2 was measured for the saturated solutions in water at pH 7.4 (20 mM HEPES buffer) at 25.0 ± 0.1 °C. The concentrations of the compounds were determined by UV-vis spectrophotometry using stock solutions of the compounds with known concentrations dissolved in pure DMSO, and 50% and 1% (v/v) DMSO/buffered aqueous solution for the calibration. The parallel artificial membrane permeability assay (PAMPA) was applied for the ligands with a Corning Gentest pre-coated PAMPA Plate System. Peff values were calculated according to the equation reported by Yu et al..

[3] = Iron(III) complex formation, UV-vis spectrophotometric titrations; assay type: physicochemical; conditions: for pFe(III)*: Fe(III) hydroxido species also considered as unbound metal, cFe = 1 μM; for pFe(III)* / pFe(III): cL = 10 μM, pH = 7.40; for pFe(III): –log[free Fe(III)] calculated at cFe = 1 μM
Experimental: as §1

[4] = Zinc(II) complex formation, UV-vis spectrophotometric titrations; assay type: physicochemical; conditions: for pZn: calculated at cM = 1 μM, cL = 10 μM, pH = 7.40
[5] = Cyclic voltammetry of copper(II)–ligand (1:1) systems; assay type: physicochemical; conditions: cL = cCu(II) = 1 mM, pH 7.40, 25 °C, 90% (v/v) DMSO/H2O, 0.01 V/s scan rate
Experimental: Cyclic voltammograms for the Fe(III) and Cu(II) complexes were recorded in 90% (v/v) DMSO/water solution containing 1 mM ligand and 0.5 mM FeCl3 or 1 mM CuCl2 using a conventional three-electrode system under nitrogen atmosphere and a PC-Controlled Electrochemical Measurement System (EF 451). The ionic strength was 0.10 M, adjusted by TBAN. Samples were purged for 15 min with Ar before recording the cyclic voltammograms. Platinum electrodes were used as the working and auxiliary electrodes, and Ag/AgCl (3 M KCl) was applied as the reference electrode. The electrochemical potentials were converted into the normal hydrogen electrode (NHE) scale by adding 0.222 V. The instrument was calibrated with an aqueous solution of K3[Fe(CN)6] (E1/2 = +0.386 V vs. NHE). Redox potentials were obtained at different scan rates (5–25 mV/s) in the range of −0.8 to +0.1 V. The dependence of the peak current values of the square root of the scan rates is shown in Figure S5 for the iron and copper complexes of COTI-NMeCy.

SW480 cells = test: MTT viability assay in combination with copper chelator TTM; assay type: cell-based, human; conditions: TTM 1 µM and 5 µM, 72 h
Experimental: For the cytotoxicity, cell viability, and proliferation studies, the 3-(4,5-dimethylthiazol-2-yl)-2,5-diphenyltetrazolium bromide (MTT) assay was utilized. Cells were seeded in 96-well plates at a density of 2 × 10^4 cells/well, with the exception of SW480/Tria, which was used at a density of 3 × 10^4 cells/well. After 24 h of recovery, cells were treated with the indicated concentration of drugs. For the drug combination experiments, verapamil and cyclosporine A (CSA) were used as […] modulators, and tetrathiomolybdate (TTM) was used as a copper chelator. The TSCs were dissolved in DMSO followed by subsequent dilutions in the medium in order to maintain a final DMSO concentration of <1%. After 72 h, the treatment solution was removed and replaced with 100 µL of MTT solution (EZ4U, Biomedica, Vienna, Austria), which was diluted 1:10 in the growth medium. A TECAN Infinite 200 Pro plate reader was used to measure the absorbance of the solution after 2–3 h incubation at 5% CO2 in an incubator at 37 °C. The anticancer activity was determined with GraphPad Prism software and indicated as IC50 values (half maximum inhibitory concentration).

[6] = T = 25.0 °C, I = 0.10 M (KCl), 30% (v/v) DMSO/H2O

| Structure (SMILES) | logβ [Fe(II)L2] [1, 6] | logβ [Fe(II)L]^+ [1, 6] | pFe(II) [1] | solubility thermodynamic [2] [µM] | pFe(III)* [3] | logβ [Fe(III)L2]^+ [3, 6] | logβ [Fe(III)L]^2+ [3, 6] | pFe(III) [3] | logβ [ZnL2] [4, 6] | logβ [ZnL]^+ [4, 6] | pZn [4] | E′ vs. NHE, copper(II)–ligand (1:1) systems [5] [V] | impact of copper chelator TTM on anticancer activity (SW480 cells) | logβ [Fe(II)L2H2]^2+ [1, 6] | logβ [Fe(II)L2H]^+ [1, 6] | logβ [Fe(II)LH]^2+ [1, 6] | logβ [Fe(III)LH]^3+ [3, 6] | free ligand in the presence of iron(III) ([3]; calculated distribution, 1 µM COTI-2, 2:1 ligand:iron(III), pH 7.4) | logβ [ZnLH]^2+ [4, 6] | free ligand in the presence of zinc(II) ([4]; calculated distribution, 1 µM COTI-2, 2:1 ligand:zinc(II), pH 7.4) |
| --- | --- | --- | --- | --- | --- | --- | --- | --- | --- | --- | --- | --- | --- | --- | --- | --- | --- | --- | --- | --- |
| CN(C)C(=S)NN=C1CCCc2cccnc21 (mixture of isomers) [COTI-NMe2, 2-(6,7-Dihydroquinolin-8(5H)-ylidene)-N^4,N^4-dimethylhydrazine-1-carbothioamide] | 31.33 ± 0.09 | 17.62 ± 0.03 | 17.8 | 417 | 11.1 | 32.77 ± 0.03 | 17.25 ± 0.02 | 19.2 | 25.24 ± 0.08 | 13.02 ± 0.04 | 11.7 | -0.24 | strong protective activity | – | – | – | – | – | – | – |
| S=C(N/N=C1\CCCc2cccnc21)N1CCN(c2ccccn2)CC1 [COTI-2, 4-(pyridine-2-yl)-N-([(8E)-5,6,7,8-tetrahydroquinolin-8-ylidene]amino)piperazine-1-carbothioamide] | 30.63 ± 0.09 | 18.28 ± 0.06 | 19.3 | 0.41 (≈ 0.15 µg/mL) | 10.6 | 29.98 ± 0.06 | 18.02 ± 0.03 | 18.6 | 23.23 ± 0.08 | 12.85 ± 0.02 | 11.9 | -0.19 | strong protective activity | 41.18 ± 0.06 | 36.74 ± 0.09 | 21.00 ± 0.03 | 21.16 ± 0.03 | 10–20% | 18.54 ± 0.02 | 10–20% |
| CN(C(=S)N/N=C1\CCCc2cccnc21)C1CCCCC1 [COTI-NMeCy, N-Cyclohexyl-2-(6,7-dihydroquinolin-8(5H)-ylidene)-N^4-methylhydrazine-1-carbothioamide] | 31.04 ± 0.03 | 18.66 ± 0.03 | 16.9 | 3.9 (≈ 1.23 µg/mL) | 9.9 | 32.20 ± 0.03 | 17.06 ± 0.02 | 18.0 | 26.32 ± 0.09 | 12.94 ± 0.04 | 12.1 | -0.22 | strong protective activity | – | – | – | – | – | – | – |
